Reference: US8431593B2, “Heteroaryl amide derivatives” (H. Lundbeck A/S, priority 2006, dated 2013)

Each compound was assayed against T1, P2X7 receptor (Homo sapiens, UniProt Q99572) (assay: P2X7 calcium mobilization assay, high throughput, antagonist activity (Example 4A)). Conditions: 50% decrease in the fluorescence response of cells exposed to 80 μM 2′(3′)-O-(4-benzoyl-benzoyl)adenosine 5′-triphosphate; Example 4A; read-out: IC50.
T1 construct: host or cells: SH-SY5Y
T1 sequence (Q99572 1-595): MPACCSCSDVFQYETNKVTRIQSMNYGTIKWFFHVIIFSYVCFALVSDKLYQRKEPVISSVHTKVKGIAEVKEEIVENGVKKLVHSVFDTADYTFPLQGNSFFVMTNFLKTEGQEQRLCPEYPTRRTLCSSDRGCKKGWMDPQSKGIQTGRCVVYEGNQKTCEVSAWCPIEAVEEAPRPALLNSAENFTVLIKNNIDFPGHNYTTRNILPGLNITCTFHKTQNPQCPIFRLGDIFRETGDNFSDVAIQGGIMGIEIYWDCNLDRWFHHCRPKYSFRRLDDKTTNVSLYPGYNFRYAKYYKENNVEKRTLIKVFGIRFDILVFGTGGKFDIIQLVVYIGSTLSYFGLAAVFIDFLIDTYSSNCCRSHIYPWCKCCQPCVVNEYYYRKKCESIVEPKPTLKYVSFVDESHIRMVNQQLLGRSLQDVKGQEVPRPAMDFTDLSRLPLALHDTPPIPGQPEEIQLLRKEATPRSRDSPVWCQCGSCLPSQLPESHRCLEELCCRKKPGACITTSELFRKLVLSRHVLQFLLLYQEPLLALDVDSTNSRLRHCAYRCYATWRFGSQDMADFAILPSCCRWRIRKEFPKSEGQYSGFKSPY
Type: cell-based
Method in brief: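 Dye-loaded cells (100,000/well, seeded previous day) are pre-exposed to compound for an hour at room temperature. Fluorescence maxima are baseline-corrected against no-agonist wells and compared with the averaged agonist-well maximum.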
`Cn1ccnc1SCc1cn2c(C(=O)NCC34CC5CC(CC(C5)C3)C4)cccc2n1` [Compound 530, N-(adamantan-1-ylmethyl)-2-{[(1-methyl-1H-imidazol-2-yl)thio]methyl}imidazo [1,2-a]pyridine-5-carboxamide] gave an IC50 of under 2000 nM.
`CC(C)(C)[C@@H](CO)NC(=O)c1cn2c(C(=O)NC[C@@H]3CC[C@H]4C[C@@H]3C4(C)C)cccc2n1` [Compound 522, 5-N-{[(1S,2R,5S)-6,6-dimethylbicyclo[3.1.1]hept-2-yl]methyl}-2-N-[(1S)-1-(hydroxymethyl)-2,2-dimethylpropyl] imidazo[1,2-a] pyridine-2,5-dicarboxamide] showed an IC50 of under 2000 nM.
`CC1(C)[C@H]2CC[C@@H](CNC(=O)c3cccc4nc(C(=O)N5CCOCC5)cn34)[C@@H]1C2` [Compound 464, N-{[(1S,2R,5S)-6,6-dimethylbicyclo[3.1.1]hept-2-yl]methyl}-2-(morpholin-4-ylcarbonyl)imidazo [1,2-a]pyridine-5-carboxamide] showed an IC50 of under 2000 nM.

Same assay, conditions: 50% decrease in the fluorescence response of cells exposed to 80 μM of 2′(3′)-O-(4-benzoyl-benzoyl)adenosine 5′-triphosphate; Example 4A; read-out: IC50
With `CC(C)c1ccc(CN(C)C(=O)c2cn3c(C(=O)NCC45CC6CC(CC(C6)C4)C5)cccc3n2)nc1` [Compound 716, 5-N-(adamantan-1-ylmethyl)-2-N-[(5-isopropylpyridin-2-yl)methyl]-2-N-methylimidazo[1,2-a]pyridine-2,5-dicarboxamide] the IC50 was under 2000 nM.
In the case of `O=C(O)CCCc1cn2c(C(=O)NCC34CC5CC(CC(C5)C3)C4)cccc2n1` [Compound 692, 4-{5-[(adamantan-1-ylmethyl)carbamoyl]imidazo[1,2-a]pyridin-2-yl} butanoic acid], the IC50 is reported as under 2000 nM.
Work on `O=C(NCC12CC3CC(CC(C3)C1)C2)c1cccc2nc(C(=O)N3CCCN(C4CCC4)CC3)cn12` [Compound 714, N-(adamantan-1-ylmethyl)-2-[(4-cyclobutyl-1,4-diazepan-1-yl)carbonyl]imidazo[1,2-a]pyridine-5-carboxamide] yielded an IC50 of under 2000 nM.
`O=C(NCC12CC3CC(CC(C3)C1)C2)c1cccc2nc(CC3(C(=O)O)SCCS3)cn12` [Compound 733, 2-({5-[(adamantan-1-ylmethyl)carbamoyl]imidazo[1,2-a]pyridin-2-yl}methyl)-1,3-dithiolane-2-carboxylic acid] gave an IC50 of under 2000 nM.
Work on `CC(C)N[C@@H]1CCN(C(=O)c2cn3c(NC(=O)CC45CC6CC(CC(C6)C4)C5)cccc3n2)C1` (stereo in doubt) [Compound 743, 2-adamantan-1-yl-N-(2-{[3-(isopropylamino)pyrrolidin-1-yl]carbonyl}imidazo[1,2-a]pyridin-5-yl)acetamide] yielded an IC50 of under 2000 nM.

Same assay, conditions: 50% decrease in the fluorescence response of cells exposed to 80 μM of 2′(3′)-O-(4-benzoyl-benzoyl)adenosine 5′-triphosphate; determined as in Example 4A; read-out: IC50
`O=C(NCC1(c2ccc(C(F)(F)F)cc2)CCCCC1)c1cccc2nc(CC(=O)N3CCn4cncc4C3)cn12` [Compound 879, 2-[2-(5,6-dihydroimidazo[1,5-a]pyrazin-7(8H)-yl)-2-oxoethyl]-N-({1-[4-(trifluoromethyl)phenyl]cyclohexyl}methyl) imidazo[1,2-a] pyridine-5-carboxamide] gave an IC50 of under 2000 nM.
Work on `O=C(O)CC(Cc1ccccc1)c1cn2c(C(=O)NCC34CC5CC(CC(C5)C3)C4)cccc2n1` (stereo not shown) [Compound 994, 3-{5-[(adamantan-1-ylmethyl)carbamoyl]imidazo[1,2-a]pyridin-2-yl}-4-phenylbutanoic acid] yielded an IC50 of under 2000 nM.
Compound `O=C(NCC12CC3CC(CC(C3)C1)C2)c1cccc2nc(C3(C(=O)O)CCCC3)cn12` [Compound 850, 1-{5-[(adamantan-1-ylmethyl)carbamoyl]imidazo [1,2-a]pyridin-2-yl} cyclopentane-carboxylic acid] has an IC50 of under 2000 nM.
Work on `O=C(O)CCc1cn2c(C(=O)NCC3(c4ccc(C(F)(F)F)cc4)CCCCC3)cccc2n1` [Compound 941, 3-{5-[({1-[4-(trifluoromethyl)phenyl]cyclohexyl}methyl)carbamoyl]imidazo [1,2-a]pyridin-2-yl}propanoic acid] yielded an IC50 of under 2000 nM.
`O=C(Cc1cn2c(C(=O)NCC3(c4ccc(Cl)cc4)CCCCC3)cccc2n1)NCC1CC1` [Compound 862, N-{[1-(4-chlorophenyl)cyclohexyl]methyl}-2-{2-[(cyclopropylmethyl)amino]-2-oxoethyl} imidazo[1,2-a] pyridine-5-carboxamide] showed an IC50 of under 2000 nM.
Work on `O=C(Cc1cn2c(C(=O)NC3CCCCC3)cccc2n1)NCC12CC3CC(CC(C3)C1)C2` [Compound 973, 2-{2-[(adamantan-1-ylmethyl)amino]-2-oxoethyl}-N-cyclohexylimidazo[1,2-a]pyridine-5-carboxamide] yielded an IC50 of under 2000 nM.

Same assay, conditions: P2X7 calcium mobilization, Example 4A; 50% decrease in the fluorescence response of cells exposed to 80 μM of (2′(3′)-O-(4-benzoyl-benzoyl)adenosine 5′-triphosephate); read-out: IC50
`O=C(NCC1(c2ccc(Cl)c(F)c2)CCCCC1)c1cccc2nc(CN3CCCC3)cn12` [Compound 1046, N-{[1-(4-chloro-3-fluorophenyl)cyclohexyl]methyl}-2-(pyrrolidin-1-ylmethyl) imidazo[1,2-a]pyridine-5-carboxamide] gave an IC50 of under 2000 nM.

Same assay, conditions: SH-SY5Y cells; 50% decrease in fluorescence response to 80 μM BzATP; read-out: IC50
In the case of `O=C(NCC(=O)N1CCOCC1)c1cn2c(C(=O)NCC34CC5CC(CC(C5)C3)C4)cccc2n1` [Compound 76, 5-N-(adamantan-1-ylmethyl)--(2-morpholin-4-yl-2-oxoethyl)imidazo[1,2-a]pyridine-2,5-dicarboxamide], the IC50 is reported as under 2000 nM.
`O=C(NCC12CC3CC(CC(C3)C1)C2)c1cccc2nc(CN3CC[C@@H](NCCO)C3)cn12` [Compound 198, N-(adamantan-1-ylmethyl)-2-({(3R)-3-[(2-hydroxy-ethyl)amino]pyrrolidin-1-yl}methyl)imidazo[1,2-a]pyridine-5-carboxamide] showed an IC50 of under 2000 nM.
`CS(=O)(=O)OCCc1cn2c(C(=O)NCC34CC5CC(CC(C5)C3)C4)cccc2n1` [Compound 63, methanesulfonic acid 2-{5-[(adamantan-1-ylmethyl)-carbamoyl]-imidazo[1,2-a]pyridin-2-yl}-ethyl ester] showed an IC50 of under 2000 nM.
Work on `CC(C)CN(C)C(=O)Cc1cn2c(C(=O)NCC34CC5CC(CC(C5)C3)C4)cccc2n1` [Compound 173, N-(adamantan-1-ylmethyl)-2-{2-[isobutyl(methyl)amino]-2-oxoethyl}imidazo[1,2-a]pyridine-5-carboxamide] yielded an IC50 of under 2000 nM.
`O=C(NCC12CC3CC(CC(C3)C1)C2)c1cccc2nc(C(=O)N3CC(O)C3)cn12` [Compound 107, N-(adamantan-1-ylmethyl)-2-[(3-hydroxyazetidin-1-yl)carbonyl]imidazo[1,2-a]pyridine-5-carboxamide] gave an IC50 of under 2000 nM.
`N[C@@H]1CCN(C(=O)c2cn3c(C(=O)NCC45CC6CC(CC(C6)C4)C5)cccc3n2)C1` [Compound 129, N-(adamantan-1-ylmethyl)-2-{[(3R)-3-aminopyrrolidin-1-yl]carbonyl}imidazo[1,2-a]pyridine-5-carboxamide] showed an IC50 of under 2000 nM.
Compound `CN(CCNS(C)(=O)=O)C(=O)Cc1cn2c(C(=O)NCC34CC5CC(CC(C5)C3)C4)cccc2n1` [Compound 45, N-(adamantan-1-ylmethyl)-2-[2-(methyl{2-[(methyl-sulfonyl)amino]eth-yl}amino)-2-oxoethyl]imidazo[1,2-a]pyridine-5-carboxamide] has an IC50 of under 2000 nM.

Same assay, conditions: fluorescence response of cells exposed to 80 μM 2′(3′)-O-(4-benzoyl-benzoyl)adenosine 5′-triphosphate; Example 4A; read-out: IC50
With `CC1(C)[C@H]2CC[C@@H](CNC(=O)c3cccc4nc(C(=O)N5CCCC(N)C5)cn34)[C@@H]1C2` (stereo partly drawn) [Compound 325, 2-[(3-aminopiperidin-1-yl)carbonyl]-N-{[(1S,2R,5S)-6,6-dimethylbicyclo[3.1.1]hept-2-yl]methyl}imidazo[1,2-a]pyridine-5-carboxamide] the IC50 was under 2000 nM.
Compound `CN(C(=O)c1cn2c(C(=O)NC[C@@H]3CC[C@H]4C[C@@H]3C4(C)C)cccc2n1)C1CCCNC1` (stereo partly drawn) [Compound 311, 5-N-{[(1S,2R,5S)-6,6-dimethylbicyclo[3.1.1]hept-2-yl]methyl}-2-N-methyl-2-N-piperidin-3-ylimidazo[1,2-a]pyridine-2,5-dicarboxamide] has an IC50 of under 2000 nM.
In the case of `O=C(O)COCc1cn2c(C(=O)NCC34CC5CC(CC(C5)C3)C4)cccc2n1` [Compound 285, ({5-[{adamantan-1-ylmethyl)carbamoyl]imidazo[1,2-a]pyridin-2-yl}methoxy)acetic acid], the IC50 is reported as under 2000 nM.
`O=C(CC12CC3CC(CC(C3)C1)C2)Nc1cccc2nc(C(=O)N3CCOCC3)cn12` [Compound 364, 2-adamantan-1-yl-N-[2-(morpholin-4-ylcarbonyl)imidazo[1,2-a]pyridin-5-yl]acetamide] was tested, and the IC50 was under 2000 nM.
With `COC[C@@H]1CCCN1C(=O)c1cn2c(NC(=O)CC34CC5CC(CC(C5)C3)C4)cccc2n1` [Compound 371, 2-adamantan-1-yl-N-(2-{[(2S)-2-(methoxymethyl)pyrrolidin-1-yl]carbonyl}imidazo [1,2-a]pyridin-5-yl)acetamide] the IC50 was under 2000 nM.
`O=C(NCC12CC3CC(CC(C3)C1)C2)c1cccc2nc(CN3CC[C@H](F)C3)cn12` [Compound 282, N-(adamantan-1-ylmethyl)-2-[(3-fluoropyrrolidin-1-yl)methyl]imidazo[1,2-a]pyridine-5-carboxamide] gave an IC50 of under 2000 nM.
